Among the data in patent US12414567B2, “Wear resistant antimicrobial compositions and methods of use” (ECOLAB USA INC., priority 2010, dated 2025) are cell viability values, retold here.

Some results are limits rather than exact numbers.

This data set relates to MatTek EpiOcular ocular tissues. Briefly: MatTek EpiOcular model ocular irritation (MTT cell viability, Example 16). The following applies: positive control, 10%, all exposure times (5-60 minutes). The class given is cell-based. The procedure:
Each of these compositions was diluted at a rate of 2 oz/gal before they were tested using the Epioccular model.
The MatTek EpiOcular™ model can be used to assess the potential ocular irritation of test articles by determining the cell viability of the tissue after exposure to the test articles. The objective of this study was to assess the ocular irritation potential of 1.56% (w/w) 12837.36.1. Control and test article exposure times were 5 minutes, 10 minutes, 20 minutes, 40 minutes and 60 minutes. After the exposures MTT was performed and data was normalized to the negative control, sterile ultrapure water (water purified and deionized˜18.2 MΩ-cm). The positive control, 10% benzalkonium chloride (BC), was effective, reducing cell viability to <10% of control for all exposure times (Tables 2a-e) and FIG. 1). The relative cell viability of ocular tissues treated with 1.56% (w/w) 12837.36.1 was 29.7%, 26.8%, 15.3%, 8.9% and 8.0% after 5, 10, 20, 40 and 60 minute exposures, respectively (Tables 2a-e and FIG. 1), resulting in an ET50 of 1.54 minutes and an estimated in vivo Draize score of 77.2 (Table 1).
The MatTek EipOcular™ model can be used to assess the potential ocular irritation of test articles by determining the cell viability of the tissue after exposure to the test articles. The objective of this study was to assess the ocular irritation potential of 1.56% (w/w) 12837.39.1. […]

In the case of benzalkonium chloride, the cell viability is on record as < 10 % of control.
